Measured values reported in US20230167058A1, “GPX4 COMPOUNDS AND COMPOSITIONS AND METHODS OF TREATMENT USING SAME” (THE TRUSTEES OF COLUMBIA UNIVERSITY IN THE CITY OF NEW YORK, priority 2020, published 2023).
Numbering of substitutions follows the chain as printed.

Experiments:
GPX4^U46C = target: T1, GPX4^U46C (Homo sapiens, UniProt P36969, U73C); test: Inhibition of the activity of purified GPX4^U46C protein (NADPH-coupled); format: biochemical; conditions: 20 μM RSL3 vs DMSO
T1 construct: His6 (N, cleaved yes); made in house; host or cells: E. coli BL21-Gold (DE3), M9 minimal medium with 15NH4Cl
T1 sequence (P36969 33-197 U73C): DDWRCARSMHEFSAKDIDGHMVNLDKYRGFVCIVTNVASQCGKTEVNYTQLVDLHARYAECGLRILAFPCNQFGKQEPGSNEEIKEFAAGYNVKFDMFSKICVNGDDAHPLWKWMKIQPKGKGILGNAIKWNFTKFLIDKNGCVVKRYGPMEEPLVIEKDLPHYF
Experimental: Similar to the determination of cellular GPX4-specific activity, by coupling the oxidation of NADPH to NADP+ by oxidized glutathione produced by GPX4 in the presence of glutathione reductase, GPX4^U46C activity was assessed by measuring the decrease in NADPH (absorbance at 340 nm). GPX4 reaction buffer was prepared by adding 0.05 U/mL glutathione reductase, 210 μM GSH, 250 μM NADPH, 50 μM Cumene-OOH into 50 mM Tris HCl, pH 8.0, 0.5 mM EDTA. 15 μM His-tagged-GPX4^U46C pre-incubated with DMSO (vehicle) or 20 μM RSL3 was added to the GPX4 reaction buffer and the absorbance at 340 nm was monitored for the following 10 min. Results were quantified using GraphPad Prism 9.

GPX4^allCys(−) A46C = target: T2, GPX4^allCys(−) A46C (Homo sapiens, UniProt P36969, C102S/C134A/C175A/C37A/C64S/C93A/U73C); test: Intact protein MALDI MS analysis, GPX4^allCys(−) A46C; format: binding; conditions: only cys46 present
T2 construct: His (cleaved yes); made in house; host or cells: E. coli BL21-Gold (DE3)
T2 sequence (P36969 33-197 C37A/C64S/U73C/C93A/C102S/C134A/C175A): T1 sequence (P36969 33-197 U73C) with C5A, C32S, C61A, C70S, C102A, C143A
Experimental: GPX4^U46C or GPX4^AllCys(−)-A46C protein was pre-incubated with DMSO control or the inhibitor to be tested prior to MALDI MS analysis: 50 μM GPX4 protein was incubated with 500 μM inhibitors in FPLC buffer (100 mM Tris pH 8.0, 300 mM NaCl, and 3 mM TCEP) with 5% DMSO at RT for 1 hour before transferring to 4° C. overnight.
1 μl of the ligand-free protein (pre-incubated with DMSO) or protein-inhibitor complex (pre-incubated with the inhibitor to be tested) was mixed with 9 μl of 10 mg/ml sinapinic acid in the matrix solution (70:30 water/acetonitrile, with 0.1% TFA). 1.0 μl of the final mix was deposited onto the target carrier and allowed to air dry. MALDI spectrum was recorded using Bruker ultrafleXtreme MALDI-TOF instrument. The range of m/z detection and suppression was adjusted to accommodate the molecular weight of target protein. 2000 Hz and 50% intensity was applied for the laser setting. For each sample, five cumulative spectra were collected and the sum was recorded for analysis. All MALDI spectra of protein-inhibitor complex were compared with ligand-free protein to determine the mass shift. Mass shifts were aligned with the mass of potential staying group of each inhibitor to conclude covalent binding.

COC(=O)c1ccc([C@@H]2c3[nH]c4ccccc4c3C[C@@H](C(=O)OC)N2C(=O)CCl)cc1 [RSL3, (1S, 3R)-RSL3]
enzymatic activity of GPX4^U46C after incubation (GPX4^U46C): inhibited the capability of GPX4 to reduce phospholipid hydroperoxides | covalent modification of cys46 (mass shift) by MALDI MS (GPX4^allCys(−) A46C): no mass shift
